The values below come from US8338445B2, “Crystal form of cabergoline” (Lek Pharmaceuticals D.D., priority 2007, dated 2012).

A short description of data set [1]: Particle size distribution by the Malvern method. It is filed as physicochemical. The protocol:
Physically pure cabergoline form L is isolated in a form of fine needles what is shown in the SEM picture. Average shorter axis of the needles is below 10 μm. Milling of cabergoline form L isolated by the process of the invention by a hammer mill gives particle size distribution d 0.9 below 10 μm.
6.1 g of cabergoline obtained in Example 1 were dissolved in 12 ml of 2-chlorotoluene by agitating at room temperature. The solution was cooled down to −30° C. while stirring. The gel-like material was formed after 60 minutes. Furthermore 150 ml of n-heptane were added and let stirring 1 hour at −20° C. Further the solvent was exchanged with 100 ml of fresh n-heptane, precooled to −20° C. and let stirring 1 hour at −20° C. Afterwards the temperature was raised to 10° C. (0.5 K/min) and further stirred for 1 hour, The temperature was raised to 20° C. (0.5 K/min) followed by stirring for 5 hour. The obtained dense suspension was filtered and washed with 50 ml of n-heptane and dried at 40° C. and 5 mbar for 24 hours. The obtained needle-like product (5.5 g) was identified as cabergoline form L. Particle size distribution of the product of Example 2 is the following: d 0.1=0.4 um; d 0.5=4.2 um; d 0.9=33 um.
Particle size distribution was measured by the Malvern method.

Data set [2] in a line: Residual solvents after comparable drying of crystal forms. The data set is classed as physicochemical. The conditions noted are these: after drying at 35° C. at 5 mBar for 48 h; both forms isolated from same solvent mixture. The procedure:
Cabergoline from L isolated by the process of the invention can be washed by cold aliphatic hydrocarbons or digesting previously isolated material in a suspension of aliphatic hydrocarbons preferably heptane to remove impurities and finally dried in vacuo at temperature from 20 to 80° C., preferably from 30 to 50° C., preferably 30 to 40° C. to remove residual solvents. […] Form L and form I are isolated from the same solvent mixture, but form I is captured as an early precipitate as described in Example B and contains below 5% of form L. Solvents are easier removed if cabergoline is in the form of needles.
6.1 g of cabergoline obtained in example 1 were dissolved in 12 ml of 2-chlorotoluene by agitating at room temperature. The solution was cooled down to −30° C. while stirring. The gel-like material was formed after 60 minutes. Furthermore 150 ml of n-heptane were added and let stirring 1 hour at −20° C. Further the solvent was exchanged with 100 ml of fresh n-heptane, precooled to −20° C. and let stirring 1 hour at −20° C. Afterwards the temperature was slowly raising to 0° C. (0.5 K/min) and small samples were analyzed.

As to `C=CCN1C[C@H](C(=O)N(CCCN(C)C)C(=O)NCC)C[C@@H]2c3cccc4[nH]cc(c34)C[C@H]21` [Cabergoline form L, 1-((6-allylergolin-8β-yl)-carbonyl)-1-(3-dimethylaminopropyl)-3-ethylurea], the “particle size distribution d 0.9” value in data set [1] (after milling by a hammer mill) is given as “below 10 μm”. In addition, in data set [1] (product of Example 2, unmilled), the “Particle size distribution d 0.1” value amounted to 0.4 um, the “Particle size distribution d 0.5” value worked out at 4.2 um and the “particle size distribution d 0.9” value was 33 um. Further, in data set [2], the “residual solvent 2-Chlorotoluene” value is recorded as 236 ppm and the “residual solvent Heptane” value is recorded as 186 ppm.
Regarding `C=CCN1C[C@H](C(=O)N(CCCN(C)C)C(=O)NCC)C[C@@H]2c3cccc4[nH]cc(c34)C[C@H]21` [Cabergoline form I, 1-((6-allylergolin-8β-yl)-carbonyl)-1-(3-dimethylaminopropyl)-3-ethylurea, reference compound], in data set [2], the “residual solvent 2-Chlorotoluene” value is listed as 333 ppm and the “residual solvent Heptane” value is 764 ppm.
